# Key:
# HT-29 [1] = assay: cells; conditions: Homo sapiens, HT-29, 72 h
# A549 [2] = assay: cells; conditions: Homo sapiens, A549, 72 h
# Description: Antiproliferative activity against human A549 cells after 72 hrs by MTT assay
# NCI-H460 [3] = assay: Antiproliferative activity against human NCI-H460 cells after 72 hrs by MTT assay; type: functional, cell-based; conditions: NCI-H460, 72 h
# U-87 MG = assay: Antiproliferative activity against human U87MG cells after 72 hrs by MTT assay; type: functional, cell-based, U-87MG ATCC
# HT-29 [4] = assay: Potency index, ratio of foretinib IC50 to compound IC50 for antiproliferative activity against human HT-29 cells; type: functional
# A549 [5] = assay: Potency index, ratio of foretinib IC50 to compound IC50 for antiproliferative activity against human A549 cells; type: functional
# NCI-H460 [6] = assay: Potency index, ratio of foretinib IC50 to compound IC50 for antiproliferative activity against human NCI-H460 cells; type: functional
# [7] = target: Hepatocyte growth factor receptor (Homo sapiens, UniProt P08581); assay: Inhibition of cMET (unknown origin) using poly(Glu,Tyr) 4:1 substrate after 30 mins by HTFR analysis
# Chain of Hepatocyte growth factor receptor (P08581 whole entry): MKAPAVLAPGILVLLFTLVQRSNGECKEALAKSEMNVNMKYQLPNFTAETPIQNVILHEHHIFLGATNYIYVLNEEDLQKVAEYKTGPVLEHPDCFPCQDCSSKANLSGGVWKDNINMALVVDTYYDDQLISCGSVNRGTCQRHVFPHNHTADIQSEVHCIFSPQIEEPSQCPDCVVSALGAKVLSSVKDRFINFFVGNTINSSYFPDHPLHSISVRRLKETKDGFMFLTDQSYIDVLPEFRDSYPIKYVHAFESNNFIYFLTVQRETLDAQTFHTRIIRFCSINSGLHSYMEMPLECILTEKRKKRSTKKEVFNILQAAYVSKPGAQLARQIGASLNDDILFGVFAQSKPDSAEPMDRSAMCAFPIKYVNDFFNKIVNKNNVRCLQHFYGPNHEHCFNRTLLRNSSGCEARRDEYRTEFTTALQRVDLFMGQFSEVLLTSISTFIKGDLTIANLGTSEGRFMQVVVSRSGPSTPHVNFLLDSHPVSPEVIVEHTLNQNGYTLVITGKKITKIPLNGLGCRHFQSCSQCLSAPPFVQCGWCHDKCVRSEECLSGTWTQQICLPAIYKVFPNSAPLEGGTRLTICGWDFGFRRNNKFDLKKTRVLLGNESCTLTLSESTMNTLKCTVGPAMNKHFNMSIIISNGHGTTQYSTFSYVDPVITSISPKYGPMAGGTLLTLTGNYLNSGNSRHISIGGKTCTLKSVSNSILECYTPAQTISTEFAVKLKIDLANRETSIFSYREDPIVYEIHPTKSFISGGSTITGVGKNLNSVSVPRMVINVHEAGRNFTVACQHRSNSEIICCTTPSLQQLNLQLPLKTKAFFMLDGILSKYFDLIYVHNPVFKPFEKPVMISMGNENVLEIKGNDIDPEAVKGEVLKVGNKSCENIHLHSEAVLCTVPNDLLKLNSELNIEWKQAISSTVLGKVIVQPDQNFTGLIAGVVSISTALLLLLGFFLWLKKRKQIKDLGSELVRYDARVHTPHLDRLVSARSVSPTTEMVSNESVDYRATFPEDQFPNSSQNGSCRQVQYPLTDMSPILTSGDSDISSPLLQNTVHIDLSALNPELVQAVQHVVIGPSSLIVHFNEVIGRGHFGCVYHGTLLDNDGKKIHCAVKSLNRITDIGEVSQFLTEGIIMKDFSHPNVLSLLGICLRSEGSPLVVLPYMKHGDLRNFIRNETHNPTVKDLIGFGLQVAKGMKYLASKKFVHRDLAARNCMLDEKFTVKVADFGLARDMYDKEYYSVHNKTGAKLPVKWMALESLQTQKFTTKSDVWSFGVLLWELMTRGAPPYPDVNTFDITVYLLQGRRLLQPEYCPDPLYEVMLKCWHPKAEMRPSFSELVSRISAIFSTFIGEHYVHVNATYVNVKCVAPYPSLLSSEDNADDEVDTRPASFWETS
# [8] = target: T1, Receptor-type tyrosine-protein kinase FLT3 (Homo sapiens, UniProt P36888); assay: Inhibition of Flt-3 (unknown origin) using poly(Glu, Tyr) 4:1 as substrate after 30 mins by HTRF assay
# T1 sequence (P36888 whole entry): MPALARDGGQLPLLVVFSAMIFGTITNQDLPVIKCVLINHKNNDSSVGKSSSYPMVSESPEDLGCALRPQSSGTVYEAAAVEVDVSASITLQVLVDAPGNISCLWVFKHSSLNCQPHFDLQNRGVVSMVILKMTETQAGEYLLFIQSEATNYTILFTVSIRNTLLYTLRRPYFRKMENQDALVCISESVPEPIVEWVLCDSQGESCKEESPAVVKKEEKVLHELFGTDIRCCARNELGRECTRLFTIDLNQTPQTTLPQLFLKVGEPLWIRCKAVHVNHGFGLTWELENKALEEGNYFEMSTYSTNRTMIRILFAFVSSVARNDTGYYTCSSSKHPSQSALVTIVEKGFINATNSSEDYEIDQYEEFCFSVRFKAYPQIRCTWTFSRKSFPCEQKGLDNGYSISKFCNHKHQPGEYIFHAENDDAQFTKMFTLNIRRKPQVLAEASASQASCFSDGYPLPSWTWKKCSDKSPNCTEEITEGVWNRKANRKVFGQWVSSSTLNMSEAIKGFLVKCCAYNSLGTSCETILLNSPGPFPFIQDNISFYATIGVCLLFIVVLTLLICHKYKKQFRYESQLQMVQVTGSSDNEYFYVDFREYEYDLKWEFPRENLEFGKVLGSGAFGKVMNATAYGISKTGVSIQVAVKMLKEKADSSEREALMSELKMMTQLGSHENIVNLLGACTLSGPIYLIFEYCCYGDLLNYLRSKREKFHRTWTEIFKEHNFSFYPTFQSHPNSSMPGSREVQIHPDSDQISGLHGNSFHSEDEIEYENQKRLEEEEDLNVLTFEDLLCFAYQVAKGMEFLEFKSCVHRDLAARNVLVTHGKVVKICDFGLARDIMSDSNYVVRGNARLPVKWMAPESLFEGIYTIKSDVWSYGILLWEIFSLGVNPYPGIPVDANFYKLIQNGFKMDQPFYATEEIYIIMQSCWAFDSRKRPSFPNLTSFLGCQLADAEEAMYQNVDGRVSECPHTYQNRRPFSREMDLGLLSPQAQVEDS
# [9] = target: Platelet-derived growth factor receptor beta (Homo sapiens, UniProt P09619); assay: Inhibition of PDGFRbeta (unknown origin) using poly(Glu, Tyr) 4:1 as substrate after 30 mins by HTRF assay
# Chain of Platelet-derived growth factor receptor beta (P09619 whole entry): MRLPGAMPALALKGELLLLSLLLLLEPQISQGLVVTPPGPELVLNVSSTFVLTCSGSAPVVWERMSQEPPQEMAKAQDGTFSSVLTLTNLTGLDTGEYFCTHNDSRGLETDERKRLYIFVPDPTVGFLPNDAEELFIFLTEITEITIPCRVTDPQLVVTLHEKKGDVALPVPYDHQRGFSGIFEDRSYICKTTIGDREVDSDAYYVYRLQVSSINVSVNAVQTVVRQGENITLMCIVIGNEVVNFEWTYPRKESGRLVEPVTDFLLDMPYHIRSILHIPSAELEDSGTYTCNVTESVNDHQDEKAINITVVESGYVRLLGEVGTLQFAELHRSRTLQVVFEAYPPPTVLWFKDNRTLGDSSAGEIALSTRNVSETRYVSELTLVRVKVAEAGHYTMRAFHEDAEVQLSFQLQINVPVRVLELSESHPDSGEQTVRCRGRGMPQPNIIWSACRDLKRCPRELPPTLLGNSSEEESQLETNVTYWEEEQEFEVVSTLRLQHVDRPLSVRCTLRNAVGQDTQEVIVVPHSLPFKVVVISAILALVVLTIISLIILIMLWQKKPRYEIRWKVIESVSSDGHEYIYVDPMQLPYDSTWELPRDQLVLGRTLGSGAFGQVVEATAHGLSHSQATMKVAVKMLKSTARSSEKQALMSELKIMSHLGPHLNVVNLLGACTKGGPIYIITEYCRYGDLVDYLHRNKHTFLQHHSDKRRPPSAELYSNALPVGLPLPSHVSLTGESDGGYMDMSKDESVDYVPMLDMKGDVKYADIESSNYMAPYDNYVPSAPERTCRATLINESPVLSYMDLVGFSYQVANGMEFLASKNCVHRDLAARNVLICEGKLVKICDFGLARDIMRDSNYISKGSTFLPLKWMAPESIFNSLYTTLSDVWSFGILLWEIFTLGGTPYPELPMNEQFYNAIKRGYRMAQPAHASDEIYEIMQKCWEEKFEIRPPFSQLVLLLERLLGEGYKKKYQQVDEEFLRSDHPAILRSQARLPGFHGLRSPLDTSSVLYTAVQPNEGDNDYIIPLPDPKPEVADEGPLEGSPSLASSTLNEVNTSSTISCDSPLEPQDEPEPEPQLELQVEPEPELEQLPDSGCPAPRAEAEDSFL
# [10] = target: Vascular endothelial growth factor receptor 2 (Homo sapiens, UniProt P35968); assay: Inhibition of VEGFR2 (unknown origin) using poly(Glu, Tyr) 4:1 as substrate after 30 mins by HTRF assay
# Chain of Vascular endothelial growth factor receptor 2 (P35968 whole entry): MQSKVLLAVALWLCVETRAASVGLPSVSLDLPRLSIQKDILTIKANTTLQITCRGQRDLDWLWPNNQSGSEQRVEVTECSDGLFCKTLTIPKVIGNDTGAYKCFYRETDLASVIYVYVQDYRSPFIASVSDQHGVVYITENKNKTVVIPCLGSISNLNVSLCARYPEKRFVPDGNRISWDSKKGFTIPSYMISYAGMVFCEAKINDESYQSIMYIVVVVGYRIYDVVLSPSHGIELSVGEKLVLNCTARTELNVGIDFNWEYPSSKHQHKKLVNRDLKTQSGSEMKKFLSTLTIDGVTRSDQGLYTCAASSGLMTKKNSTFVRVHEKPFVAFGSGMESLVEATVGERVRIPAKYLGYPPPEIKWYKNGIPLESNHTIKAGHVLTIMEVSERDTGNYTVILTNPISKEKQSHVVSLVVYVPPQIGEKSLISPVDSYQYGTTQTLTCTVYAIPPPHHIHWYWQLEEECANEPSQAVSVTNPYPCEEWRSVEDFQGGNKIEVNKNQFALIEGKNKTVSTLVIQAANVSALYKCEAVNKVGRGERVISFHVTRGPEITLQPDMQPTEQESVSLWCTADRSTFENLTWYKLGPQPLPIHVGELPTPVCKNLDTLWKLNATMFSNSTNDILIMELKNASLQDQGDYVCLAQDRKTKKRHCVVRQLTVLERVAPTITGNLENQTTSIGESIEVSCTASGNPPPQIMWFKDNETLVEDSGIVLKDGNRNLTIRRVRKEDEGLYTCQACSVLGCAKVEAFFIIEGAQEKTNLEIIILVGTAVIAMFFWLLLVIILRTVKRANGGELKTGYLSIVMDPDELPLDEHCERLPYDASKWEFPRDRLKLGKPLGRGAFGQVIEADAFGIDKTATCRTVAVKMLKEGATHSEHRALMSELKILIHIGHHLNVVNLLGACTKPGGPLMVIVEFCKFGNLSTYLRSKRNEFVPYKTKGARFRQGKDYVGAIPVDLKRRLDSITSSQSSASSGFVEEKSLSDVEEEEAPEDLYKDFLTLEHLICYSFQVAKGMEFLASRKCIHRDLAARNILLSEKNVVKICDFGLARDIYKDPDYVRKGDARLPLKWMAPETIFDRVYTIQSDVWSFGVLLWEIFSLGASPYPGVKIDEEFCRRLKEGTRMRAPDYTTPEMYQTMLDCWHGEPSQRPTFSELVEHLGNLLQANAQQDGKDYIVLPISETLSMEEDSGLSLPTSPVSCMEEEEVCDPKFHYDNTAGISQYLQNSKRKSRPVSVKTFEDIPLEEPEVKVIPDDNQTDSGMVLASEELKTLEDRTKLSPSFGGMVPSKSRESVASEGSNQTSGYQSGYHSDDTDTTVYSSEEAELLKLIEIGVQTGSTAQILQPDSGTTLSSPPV
# [11] = target: Epidermal growth factor receptor (Homo sapiens, UniProt P00533); assay: Inhibition of EGFR (unknown origin) using poly(Glu, Tyr) 4:1 as substrate after 30 mins by HTRF assay
# [12] = target: Mast/stem cell growth factor receptor Kit (Homo sapiens, UniProt P10721); assay: Inhibition of cKIT (unknown origin) using poly(Glu, Tyr) 4:1 as substrate after 30 mins by HTRF assay
# Chain of Mast/stem cell growth factor receptor Kit (P10721 whole entry): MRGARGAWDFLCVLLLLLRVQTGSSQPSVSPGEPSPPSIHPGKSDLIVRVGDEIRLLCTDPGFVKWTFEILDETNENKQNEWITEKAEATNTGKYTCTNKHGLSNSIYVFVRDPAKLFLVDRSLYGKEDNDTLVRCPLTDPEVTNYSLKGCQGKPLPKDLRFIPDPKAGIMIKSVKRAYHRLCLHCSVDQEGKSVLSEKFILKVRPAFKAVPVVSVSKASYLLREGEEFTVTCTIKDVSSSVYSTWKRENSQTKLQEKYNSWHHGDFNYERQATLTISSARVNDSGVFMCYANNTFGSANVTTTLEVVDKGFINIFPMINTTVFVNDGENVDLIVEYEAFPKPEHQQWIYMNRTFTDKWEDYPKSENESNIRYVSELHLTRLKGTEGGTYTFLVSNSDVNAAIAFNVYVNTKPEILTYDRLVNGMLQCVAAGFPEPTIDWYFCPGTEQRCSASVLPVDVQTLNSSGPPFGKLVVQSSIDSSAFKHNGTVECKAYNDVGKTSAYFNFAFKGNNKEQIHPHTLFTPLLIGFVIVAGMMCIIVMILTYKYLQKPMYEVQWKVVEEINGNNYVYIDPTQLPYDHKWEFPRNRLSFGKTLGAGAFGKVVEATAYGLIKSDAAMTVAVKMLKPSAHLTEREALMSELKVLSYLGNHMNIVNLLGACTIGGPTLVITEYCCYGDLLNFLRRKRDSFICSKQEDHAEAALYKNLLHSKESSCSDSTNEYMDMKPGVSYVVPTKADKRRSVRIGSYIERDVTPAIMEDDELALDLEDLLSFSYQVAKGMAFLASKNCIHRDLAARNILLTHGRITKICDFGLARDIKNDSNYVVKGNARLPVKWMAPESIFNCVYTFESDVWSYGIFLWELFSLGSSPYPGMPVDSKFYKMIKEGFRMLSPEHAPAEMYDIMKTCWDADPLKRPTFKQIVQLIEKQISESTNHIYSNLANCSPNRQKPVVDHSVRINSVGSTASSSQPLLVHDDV
Compound,IC50 (HT-29 [1]),IC50 (A549 [2]),IC50 (NCI-H460 [3]),IC50 (U-87 MG),other results
O=C(Nc1ccc(Oc2ccnc3[nH]ccc23)c(F)c1)c1cc2cccnc2n(-c2ccc(Cl)cc2)c1=O,82 nM,110 nM,,,
O=C(Nc1ccc(Oc2ccnc3[nH]ccc23)c(F)c1)c1cc2cccnc2n(-c2ccc(Br)cc2)c1=O,120 nM,210 nM,260 nM,1510 nM,
COc1ccc(-n2c(=O)c(C(=O)Nc3ccc(Oc4ccnc5c4ccn5C)c(F)c3)cc3cccnc32)cc1,1290 nM,2750 nM,,,
Cn1ccc2c(Oc3ccc(NC(=O)c4cc5cccnc5n(-c5ccccc5)c4=O)cc3)ccnc21,620 nM,850 nM,560 nM,5030 nM,
Cn1ccc2c(Oc3ccc(NC(=O)c4cc5cccnc5n(-c5ccc(F)cc5)c4=O)cc3)ccnc21,250 nM,210 nM,260 nM,2120 nM,
O=C(Nc1ccc(Oc2ccnc3[nH]ccc23)c(F)c1)c1cc2cccnc2n(-c2ccc(F)c(Cl)c2)c1=O,310 nM,630 nM,1050 nM,5230 nM,
Cn1ccc2c(Oc3ccc(NC(=O)c4cc5cccnc5n(-c5ccccc5)c4=O)cc3F)ccnc21,510 nM,430 nM,550 nM,3590 nM,
Cn1ccc2c(Oc3ccc(NC(=O)c4cc5cccnc5n(-c5ccc(Br)cc5)c4=O)cc3)ccnc21,690 nM,680 nM,,,
Cn1ccc2c(Oc3ccc(NC(=O)c4cc5cccnc5n(-c5ccc(F)cc5)c4=O)cc3F)ccnc21,160 nM,280 nM,250 nM,1320 nM,
Cn1ccc2c(Oc3ccc(NC(=O)c4cc5cccnc5n(-c5ccc(Br)cc5F)c4=O)cc3)ccnc21,2580 nM,1630 nM,,,
O=C(Nc1ccc(Oc2ccnc3[nH]ccc23)c(F)c1)c1cc2cccnc2n(-c2ccc(Br)cc2F)c1=O,820 nM,460 nM,,,
O=C(Nc1ccc(Oc2ccnc3[nH]ccc23)c(F)c1)c1cc2cccnc2n(-c2ccccc2)c1=O,160 nM,190 nM,180 nM,1260 nM,
O=C(Nc1ccc(Oc2ccnc3[nH]ccc23)cc1)c1cc2cccnc2n(-c2ccc(Br)cc2)c1=O,270 nM,280 nM,,,
O=C(Nc1ccc(Oc2ccnc3[nH]ccc23)cc1)c1cc2cccnc2n(-c2ccc(C(F)(F)F)cc2Cl)c1=O,2160 nM,3230 nM,1950 nM,6030 nM,
Cn1ccc2c(Oc3ccc(NC(=O)c4cc5cccnc5n(-c5ccc(C(F)(F)F)cc5Cl)c4=O)cc3F)ccnc21,5830 nM,3530 nM,6010 nM,10200 nM,
Cn1ccc2c(Oc3ccc(NC(=O)c4cc5cccnc5n(-c5ccc(Br)cc5)c4=O)cc3F)ccnc21,330 nM,390 nM,420 nM,2580 nM,
Cn1ccc2c(Oc3ccc(NC(=O)c4cc5cccnc5n(-c5ccc(Cl)cc5)c4=O)cc3F)ccnc21,220 nM,350 nM,,,
Cn1ccc2c(Oc3ccc(NC(=O)c4cc5cccnc5n(-c5ccc(C(F)(F)F)cc5Cl)c4=O)cc3)ccnc21,6050 nM,8250 nM,6950 nM,12600 nM,
COc1ccc(-n2c(=O)c(C(=O)Nc3ccc(Oc4ccnc5[nH]ccc45)c(F)c3)cc3cccnc32)cc1,540 nM,610 nM,,,
O=C(Nc1ccc(Oc2ccnc3[nH]ccc23)cc1)c1cc2cccnc2n(-c2ccc(F)c(Cl)c2)c1=O,560 nM,680 nM,,,

# Second part, led by results:
IC50 (HT-29 [1]),IC50 (A549 [2]),IC50 (NCI-H460 [3]),IC50 (U-87 MG),Compound,other results
1360 nM,1020 nM,,,O=C(Nc1ccc(Oc2ccnc3[nH]ccc23)c(F)c1)c1cc2cccnc2n(-c2ccc(C(F)(F)F)cc2Cl)c1=O,
730 nM,630 nM,,,Cn1ccc2c(Oc3ccc(NC(=O)c4cc5cccnc5n(-c5ccc(Cl)cc5)c4=O)cc3)ccnc21,
1260 nM,930 nM,960 nM,2350 nM,COc1ccc(-n2c(=O)c(C(=O)Nc3ccc(Oc4ccnc5[nH]ccc45)cc3)cc3cccnc32)cc1,
2460 nM,3560 nM,,,Cn1ccc2c(Oc3ccc(NC(=O)c4cc5cccnc5n(-c5ccc(F)c(Cl)c5)c4=O)cc3F)ccnc21,
1210 nM,820 nM,1210 nM,2350 nM,Cn1ccc2c(Oc3ccc(NC(=O)c4cc5cccnc5n(-c5ccc(F)c(Cl)c5)c4=O)cc3)ccnc21,
36 nM,62 nM,87 nM,620 nM,O=C(Nc1ccc(Oc2ccnc3[nH]ccc23)c(F)c1)c1cc2cccnc2n(-c2ccc(F)cc2)c1=O,Ratio IC50 (HT-29 [4]): 7.2; Ratio IC50 (A549 [5]): 5.2; Ratio IC50 (NCI-H460 [6]): 3.2; IC50 [7]: 1.92 nM; IC50 [8]: 1.16 nM; IC50 [9]: 1.81 nM; IC50 [10]: 152 nM; IC50 [11]: 633 nM; IC50 [12]: 684 nM
290 nM,360 nM,380 nM,1580 nM,O=C(Nc1ccc(Oc2ccnc3[nH]ccc23)cc1)c1cc2cccnc2n(-c2ccccc2)c1=O,
160 nM,210 nM,190 nM,1360 nM,O=C(Nc1ccc(Oc2ccnc3[nH]ccc23)cc1)c1cc2cccnc2n(-c2ccc(F)cc2)c1=O,
3290 nM,2690 nM,3150 nM,6470 nM,Cn1ccc2c(Oc3ccc(NC(=O)c4cc5cccnc5n(-c5ccc(Br)cc5F)c4=O)cc3F)ccnc21,
280 nM,290 nM,290 nM,3370 nM,O=C(Nc1ccc(Oc2ccnc3[nH]ccc23)cc1)c1cc2cccnc2n(-c2ccc(Cl)cc2)c1=O,
2360 nM,1570 nM,,,O=C(Nc1ccc(Oc2ccnc3[nH]ccc23)cc1)c1cc2cccnc2n(-c2ccc(Br)cc2F)c1=O,
2050 nM,3460 nM,1920 nM,5150 nM,COc1ccc(-n2c(=O)c(C(=O)Nc3ccc(Oc4ccnc5c4ccn5C)cc3)cc3cccnc32)cc1,

# Source: ChEMBL document CHEMBL4251577, “Synthesis and antiproliferative activity of pyrrolo[2,3-b]pyridine derivatives bearing the 1,8-naphthyridin-2-one moiety” (Eur J Med Chem, 2018)
